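Cells were grown in 96-well plates and exposed to each compound for 48 hours at five concentrations; endpoints were interpolated linearly between bracketing concentrations, or set to the highest concentration if not reached. GI50: concentration for 50% inhibition of growth. Definition used: TGI = concentration required for complete inhibition of growth.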
Key:
Test in all cases: DTP human tumour cell line panel, 48 h
KM12 colon = system: KM12 colon
EKVX NSCLC = system: EKVX NSCLC
HL-60(TB) leukemia = system: HL-60(TB) leukemia
SNB-78 CNS = system: SNB-78 CNS
SW-620 colon = system: SW-620 colon
RXF 393 renal = system: RXF 393 renal
HT29 colon = system: HT29 colon
UACC-62 melanoma = system: UACC-62 melanoma
SK-MEL-5 melanoma = system: SK-MEL-5 melanoma
RPMI-8226 leukemia = system: RPMI-8226 leukemia
HS 578T breast = system: HS 578T breast

| SMILES | TGI (KM12 colon) [µM] | TGI (EKVX NSCLC) [µM] | TGI (HL-60(TB) leukemia) [µM] | TGI (SNB-78 CNS) [µM] | TGI (SW-620 colon) [µM] | TGI (RXF 393 renal) [µM] | TGI (HT29 colon) [µM] | TGI (UACC-62 melanoma) [µM] | TGI (SK-MEL-5 melanoma) [µM] | TGI (RPMI-8226 leukemia) [µM] | TGI (HS 578T breast) [µM] | GI50 (KM12 colon) [µM] | GI50 (EKVX NSCLC) [µM] | GI50 (HL-60(TB) leukemia) [µM] | GI50 (SW-620 colon) [µM] | GI50 (HT29 colon) [µM] | GI50 (SK-MEL-5 melanoma) [µM] | GI50 (HS 578T breast) [µM] | GI50 (RPMI-8226 leukemia) [µM] |
| --- | --- | --- | --- | --- | --- | --- | --- | --- | --- | --- | --- | --- | --- | --- | --- | --- | --- | --- | --- |
| COc1ccc2c3c1OC1CC(O)C=CC31CCN(C)C2 (configuration not stated) | > 150 | > 150 | > 150 | > 117 | > 150 | > 150 | > 150 | > 150 | > 150 | > 150 | – | – | – | – | – | – | – | – | – |
| CCCC/C=C1\CCC(CN2CCCCC2)C1=O (configuration not stated) | > 33.8 | 31.9 | 14.4 | 27.4 | 14.4 | 18.1 | 23.7 | 24.8 | 42.6 | – | > 100 | – | – | – | – | – | – | – | – |
| CCOC(=O)/C(O)=C1\C(=O)N(C)C(=O)C1c1ccc(OC)c(OC)c1 (configuration not stated) | > 100 | > 100 | > 100 | > 100 | > 31.6 | > 100 | > 100 | > 100 | > 100 | > 100 | – | – | – | – | – | – | – | – | – |
| O=C(Nc1ccccc1F)c1c(O)nc2sccn2c1=O | > 10 | > 10 | > 10 | – | > 10 | > 10 | > 10 | > 10 | > 10 | > 10 | > 10 | – | – | – | – | – | – | – | – |
| O=C1C(Br)=CC2([N+](=O)[O-])CCNc3c(O)c4c5c(c3C2=C1Br)=NCCC=5C=N4 (configuration not stated) | 14.8 | 7.43 | 0.454 | 5.48 | 4 | 7.76 | 7.24 | 3.14 | 1.33 | 0.761 | – | – | – | – | – | – | – | – | – |
| COc1ccc2[nH]c(C(=O)N3CC(CCl)c4ccc(N)cc43)cc2c1 (configuration not stated) | 0.406 | 2.78 | 0.631 | – | > 100 | 0.251 | 0.508 | 0.376 | 0.195 | > 35.4 | 1.32 | – | – | – | – | – | – | – | – |
| COC(=O)/C=C\Sc1ccn(/C=C\C(=O)OC)c(=S)n1 | 42.8 | 68.2 | > 100 | – | 56.5 | 23.3 | 52.9 | – | 80.6 | > 100 | 78.9 | – | – | – | – | – | – | – | – |
| O=C(CCCn1cnc([N+](=O)[O-])n1)NCCn1ccnc1[N+](=O)[O-] | > 100 | > 100 | > 100 | – | > 100 | > 100 | > 100 | > 100 | > 100 | > 100 | > 100 | – | – | – | – | – | – | – | – |
| CC1(C)OP23(NC(=O)OC2(C(F)(F)F)c2ccccc2O3)OC1(C)C (configuration not stated) | > 100 | – | > 100 | > 100 | – | > 100 | > 100 | > 100 | > 100 | – | – | – | – | – | – | – | – | – | – |
| CC(=O)O[C@H]1CC[C@@]2(C)C(=CC[C@@H]3[C@@H]2CC[C@]2(C)C(c4cccnc4)=CC[C@@H]32)C1 | > 100 | > 100 | > 100 | – | > 100 | – | 12.7 | – | 10.1 | 8.07 | 71.3 | 3.73 | 4.62 | 7.36 | 5.81 | 3.07 | 2.89 | 3.38 | 2.81 |
| N/N=C(\C(=O)Nc1c(Cl)cc([N+](=O)[O-])cc1Cl)C(c1cnc2ccc([N+](=O)[O-])cc2n1)[N+](=O)[O-] (configuration not stated) | > 100 | > 100 | > 100 | > 100 | > 100 | > 100 | > 100 | > 100 | > 100 | > 100 | – | – | – | – | – | – | – | – | – |
